{
  "source": "ChEMBL document CHEMBL2057207",
  "about": "“Fluorometric detection of adenine in target DNA by exciplex formation with fluorescent 8-arylethynylated deoxyguanosine” (Bioorg Med Chem Lett, 2012)",
  "format_in_all_cases": "nucleic-acid assay",
  "key": {"[1]": {"system": "Nucleic Acid", "assay": "Binding affinity to DNA 3'-GCG TTA A ATT GCG-5' assessed as change in fluorescence emission at 2.5 uM by UV-Vis spectrophotometric analysis at pH 7"}, "[2]": {"system": "Nucleic Acid", "assay": "Binding affinity to DNA 3'-GCG TTA G ATT GCG-5' assessed as change in fluorescence emission at 2.5 uM by UV transilluminator analysis"}, "[3]": {"system": "Nucleic Acid", "assay": "Binding affinity to DNA 3'-GCG TTA A ATT GCG-5' assessed as melting temperature"}, "[4]": {"system": "Nucleic Acid", "assay": "Binding affinity to DNA 3'-GCG TTA T ATT GCG-5' assessed as change in fluorescence emission at 2.5 uM by UV-Vis spectrophotometric analysis at pH 7"}, "[5]": {"system": "Nucleic Acid", "assay": "Binding affinity to DNA 3'-GCG TTA C ATT GCG-5' assessed as melting temperature"}, "[6]": {"system": "Nucleic Acid", "assay": "Binding affinity to DNA 3'-GCG TTA G ATT GCG-5' assessed as change in fluorescence emission at 2.5 uM by UV-Vis spectrophotometric analysis at pH 7"}, "[7]": {"system": "Nucleic Acid", "assay": "Binding affinity to DNA 3'-GCG TTA C ATT GCG-5' assessed as change in fluorescence emission at 2.5 uM by UV transilluminator analysis"}, "[8]": {"system": "Nucleic Acid", "assay": "Binding affinity to DNA 3'-GCG TTA T ATT GCG-5' assessed as melting temperature"}, "[9]": {"system": "Nucleic Acid", "assay": "Binding affinity to DNA 3'-GCG TTA A ATT GCG-5' assessed as change in fluorescence emission at 2.5 uM by UV transilluminator analysis"}, "[10]": {"system": "Nucleic Acid", "assay": "Binding affinity to DNA 3'-GCG TTA C ATT GCG-5' assessed as change in fluorescence emission at 2.5 uM by UV-Vis spectrophotometric analysis at pH 7"}, "[11]": {"system": "Nucleic Acid", "assay": "Binding affinity to DNA 3'-GCG TTA T ATT GCG-5' assessed as change in fluorescence emission at 2.5 uM by UV transilluminator analysis"}, "[12]": {"system": "Nucleic Acid", "assay": "Binding affinity to DNA 3'-GCG TTA G ATT GCG-5' assessed as melting temperature"}},
  "note": "Active and inactive are the calls of the source. The calls are words filed in the database; no cut-off is given here.",
  "data": [
    {"smiles": "COc1ccc(C#Cc2nc3c(=O)[nH]c(N)nc3n2[C@H]2C[C@H](OP(=O)(O)OC[C@H]3O[C@@H](n4cc(C)c(=O)[nH]c4=O)C[C@@H]3OP(=O)(O)OC[C@H]3O[C@@H](n4cnc5c(N)ncnc54)C[C@@H]3OP(=O)(O)OC[C@H]3O[C@@H](n4cnc5c(N)ncnc54)C[C@@H]3OP(=O)(O)OC[C@H]3O[C@@H](n4ccc(N)nc4=O)C[C@@H]3OP(=O)(O)OC[C@H]3O[C@@H](n4cnc5c(=O)[nH]c(N)nc54)C[C@@H]3OP(=O)(O)OC[C@H]3O[C@@H](n4ccc(N)nc4=O)C[C@@H]3O)[C@@H](COP(=O)(O)O[C@H]3C[C@H](n4cc(C)c(=O)[nH]c4=O)O[C@@H]3COP(=O)(O)O[C@H]3C[C@H](n4cnc5c(N)ncnc54)O[C@@H]3COP(=O)(O)O[C@H]3C[C@H](n4cnc5c(N)ncnc54)O[C@@H]3COP(=O)(O)O[C@H]3C[C@H](n4ccc(N)nc4=O)O[C@@H]3COP(=O)(O)O[C@H]3C[C@H](n4cnc5c(=O)[nH]c(N)nc54)O[C@@H]3COP(=O)(O)O[C@H]3C[C@H](n4ccc(N)nc4=O)O[C@@H]3CO)O2)cc1", "values": [
      {"measurement": "Activity", "setting": "[1]", "result": "Active"},
      {"measurement": "Activity", "setting": "[2]", "result": "Active"},
      {"measurement": "Tm", "setting": "[3]", "result": 49.7, "unit": "°C"},
      {"measurement": "Activity", "setting": "[4]", "result": "inactive"},
      {"measurement": "Tm", "setting": "[5]", "result": 50.5, "unit": "°C"},
      {"measurement": "Activity", "setting": "[6]", "result": "inactive"},
      {"measurement": "Activity", "setting": "[7]", "result": "Active"},
      {"measurement": "Tm", "setting": "[8]", "result": 45.1, "unit": "°C"},
      {"measurement": "Activity", "setting": "[9]", "result": "Active"},
      {"measurement": "Activity", "setting": "[10]", "result": "inactive"},
      {"measurement": "Activity", "setting": "[11]", "result": "Active"},
      {"measurement": "Tm", "setting": "[12]", "result": 49.8, "unit": "°C"}
    ]},
    {"smiles": "COc1ccc(C#Cc2nc3c(=O)[nH]c(N)nc3n2[C@H]2C[C@H](OP(=O)(O)OC[C@H]3O[C@@H](n4cc(C)c(=O)[nH]c4=O)C[C@@H]3OP(=O)(O)OC[C@H]3O[C@@H](n4cnc5c(N)ncnc54)C[C@@H]3OP(=O)(O)OC[C@H]3O[C@@H](n4cnc5c(N)ncnc54)C[C@@H]3OP(=O)(O)OC[C@H]3O[C@@H](n4ccc(N)nc4=O)C[C@@H]3OP(=O)(O)OC[C@H]3O[C@@H](n4cnc5c(=O)[nH]c(N)nc54)C[C@@H]3OP(=O)(O)OC[C@H]3O[C@@H](n4ccc(N)nc4=O)C[C@@H]3O)[C@@H](COP(=O)(O)O[C@H]3C[C@H](n4cc(C)c(=O)[nH]c4=O)O[C@@H]3COP(=O)(O)O[C@H]3C[C@H](n4cnc5c(N)ncnc54)O[C@@H]3COP(=O)(O)O[C@H]3C[C@H](n4cnc5c(N)ncnc54)O[C@@H]3COP(=O)(O)O[C@H]3C[C@H](n4ccc(N)nc4=O)O[C@@H]3COP(=O)(O)O[C@H]3C[C@H](n4cnc5c(=O)[nH]c(N)nc54)O[C@@H]3COP(=O)(O)O[C@H]3C[C@H](n4ccc(N)nc4=O)O[C@@H]3CO)O2)c2ccccc12", "values": [
      {"measurement": "Activity", "setting": "[1]", "result": "Active"},
      {"measurement": "Tm", "setting": "[3]", "result": 49.2, "unit": "°C"},
      {"measurement": "Activity", "setting": "[4]", "result": "inactive"},
      {"measurement": "Tm", "setting": "[5]", "result": 49.4, "unit": "°C"},
      {"measurement": "Activity", "setting": "[6]", "result": "inactive"},
      {"measurement": "Tm", "setting": "[8]", "result": 46.7, "unit": "°C"},
      {"measurement": "Activity", "setting": "[10]", "result": "inactive"},
      {"measurement": "Tm", "setting": "[12]", "result": 49.6, "unit": "°C"}
    ]},
    {"smiles": "COc1cc(OC)c(C#Cc2nc3c(=O)[nH]c(N)nc3n2[C@H]2C[C@H](OP(=O)(O)OC[C@H]3O[C@@H](n4cc(C)c(=O)[nH]c4=O)C[C@@H]3OP(=O)(O)OC[C@H]3O[C@@H](n4cnc5c(N)ncnc54)C[C@@H]3OP(=O)(O)OC[C@H]3O[C@@H](n4cnc5c(N)ncnc54)C[C@@H]3OP(=O)(O)OC[C@H]3O[C@@H](n4ccc(N)nc4=O)C[C@@H]3OP(=O)(O)OC[C@H]3O[C@@H](n4cnc5c(=O)[nH]c(N)nc54)C[C@@H]3OP(=O)(O)OC[C@H]3O[C@@H](n4ccc(N)nc4=O)C[C@@H]3O)[C@@H](COP(=O)(O)O[C@H]3C[C@H](n4cc(C)c(=O)[nH]c4=O)O[C@@H]3COP(=O)(O)O[C@H]3C[C@H](n4cnc5c(N)ncnc54)O[C@@H]3COP(=O)(O)O[C@H]3C[C@H](n4cnc5c(N)ncnc54)O[C@@H]3COP(=O)(O)O[C@H]3C[C@H](n4ccc(N)nc4=O)O[C@@H]3COP(=O)(O)O[C@H]3C[C@H](n4cnc5c(=O)[nH]c(N)nc54)O[C@@H]3COP(=O)(O)O[C@H]3C[C@H](n4ccc(N)nc4=O)O[C@@H]3CO)O2)c(OC)c1", "values": [
      {"measurement": "Activity", "setting": "[1]", "result": "Active"},
      {"measurement": "Tm", "setting": "[3]", "result": 52.2, "unit": "°C"},
      {"measurement": "Activity", "setting": "[4]", "result": "inactive"},
      {"measurement": "Tm", "setting": "[5]", "result": 45.5, "unit": "°C"},
      {"measurement": "Activity", "setting": "[6]", "result": "inactive"},
      {"measurement": "Tm", "setting": "[8]", "result": 42.8, "unit": "°C"},
      {"measurement": "Activity", "setting": "[10]", "result": "inactive"},
      {"measurement": "Tm", "setting": "[12]", "result": 46.2, "unit": "°C"}
    ]},
    {"smiles": "Cc1cn([C@H]2C[C@H](OP(=O)(O)OC[C@H]3O[C@@H](n4c(C#Cc5ccccc5)nc5c(=O)[nH]c(N)nc54)C[C@@H]3OP(=O)(O)OC[C@H]3O[C@@H](n4cc(C)c(=O)[nH]c4=O)C[C@@H]3OP(=O)(O)OC[C@H]3O[C@@H](n4cnc5c(N)ncnc54)C[C@@H]3OP(=O)(O)OC[C@H]3O[C@@H](n4cnc5c(N)ncnc54)C[C@@H]3OP(=O)(O)OC[C@H]3O[C@@H](n4ccc(N)nc4=O)C[C@@H]3OP(=O)(O)OC[C@H]3O[C@@H](n4cnc5c(=O)[nH]c(N)nc54)C[C@@H]3OP(=O)(O)OC[C@H]3O[C@@H](n4ccc(N)nc4=O)C[C@@H]3O)[C@@H](COP(=O)(O)O[C@H]3C[C@H](n4cnc5c(N)ncnc54)O[C@@H]3COP(=O)(O)O[C@H]3C[C@H](n4cnc5c(N)ncnc54)O[C@@H]3COP(=O)(O)O[C@H]3C[C@H](n4ccc(N)nc4=O)O[C@@H]3COP(=O)(O)O[C@H]3C[C@H](n4cnc5c(=O)[nH]c(N)nc54)O[C@@H]3COP(=O)(O)O[C@H]3C[C@H](n4ccc(N)nc4=O)O[C@@H]3CO)O2)c(=O)[nH]c1=O", "values": [
      {"measurement": "Activity", "setting": "[1]", "result": "inactive"},
      {"measurement": "Activity", "setting": "[4]", "result": "inactive"},
      {"measurement": "Activity", "setting": "[6]", "result": "inactive"},
      {"measurement": "Activity", "setting": "[10]", "result": "inactive"}
    ]}
  ]
}
